Measurements from ChEMBL document CHEMBL4196029, “New MD2 inhibitors derived from curcumin with improved anti-inflammatory activity” (Eur J Med Chem, 2018).
Activity calls are given as the source filed them. The rule behind the calls is not given here.

Legend:
Rattus norvegicus [1] = experiment: Anti-inflammatory activity in Sprague-Dawley rat model of LPS-induced acute lung injury assessed as reduction in morphological changes in lungs at 20 mg/kg, po administered daily for 1 week followed by LPS addition at 30 mins post last dose measured after 6 hrs by hematoxylin and eosin staining based light microscopic assay; type: functional, organism-based
Peritoneal macrophage [2] = experiment: Inhibition of LPS-induced IL-1beta mRNA expression in C57BL/6 mouse primary peritoneal macrophages at 10 uM preincubated for 30 mins followed by LPS addition measured after 24 hrs by qRT-PCR analysis; type: functional, cell-based
Rattus norvegicus [3] = experiment: Anti-inflammatory activity in Sprague-Dawley rat model of LPS-induced acute lung injury assessed as reduction in pulmonary edema at 20 mg/kg, po administered daily for 1 week followed by LPS addition at 30 mins post last dose measured after 6 hrs; type: functional, organism-based
Peritoneal macrophage [4] = experiment: Anti-inflammatory activity in C57BL/6 mouse primary peritoneal macrophages assessed as inhibition of LPS-induced IL-6 secretion at 1 uM preincubated for 30 mins followed by LPS addition measured after 24 hrs by ELISA relative to control; type: functional; settings: C57BL/6, Peritoneal macrophage
RAW264.7 [5] = experiment: Binding affinity to MD2 in […] cells assessed as inhibition of LPS-induced TLR4-MD2 complex dimerization at 10 uM by co-immunoprecipitation assay; type: cell-based
[6] = molecular target: T1, Inhibitor of nuclear factor kappa-B kinase subunit beta (Homo sapiens) (UniProt O14920); experiment: Inhibition of recombinant human N-terminal His-tagged IKKbeta (1 to 662 residues) expressed in baculovirus expression system at 1 uM after 1 hr by caliper mobility shift assay relative to control
T1 sequence (whole entry): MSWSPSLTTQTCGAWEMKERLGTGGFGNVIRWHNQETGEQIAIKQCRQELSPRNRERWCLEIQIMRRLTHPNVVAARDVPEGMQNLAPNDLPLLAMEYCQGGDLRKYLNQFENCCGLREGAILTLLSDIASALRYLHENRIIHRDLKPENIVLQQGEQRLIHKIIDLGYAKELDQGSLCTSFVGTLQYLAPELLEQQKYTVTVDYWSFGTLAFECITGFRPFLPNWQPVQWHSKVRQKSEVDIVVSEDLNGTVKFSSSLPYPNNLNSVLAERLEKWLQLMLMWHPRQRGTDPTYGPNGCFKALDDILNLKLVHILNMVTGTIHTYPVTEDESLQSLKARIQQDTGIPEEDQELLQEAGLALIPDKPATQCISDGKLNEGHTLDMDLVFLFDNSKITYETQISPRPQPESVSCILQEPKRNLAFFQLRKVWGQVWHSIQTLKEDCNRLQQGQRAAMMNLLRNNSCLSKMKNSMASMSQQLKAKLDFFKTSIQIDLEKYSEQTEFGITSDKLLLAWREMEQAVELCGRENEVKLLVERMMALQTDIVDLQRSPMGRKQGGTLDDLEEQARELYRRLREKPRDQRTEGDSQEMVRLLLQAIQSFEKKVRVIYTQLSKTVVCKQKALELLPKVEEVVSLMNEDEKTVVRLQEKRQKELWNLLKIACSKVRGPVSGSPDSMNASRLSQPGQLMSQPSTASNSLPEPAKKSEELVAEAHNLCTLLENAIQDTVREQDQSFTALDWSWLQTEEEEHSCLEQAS

RAW264.7 [7] = experiment: Inhibition of MD2 in […] cells harboring NF-kB-luc assessed as inhibition of LPS-induced TLR4 activation-mediated NF-kB transcriptional activity at 2.5 uM preincubated with cells followed by LPS addition measured after 6 hrs by luciferase reporter gene assay; type: cell-based
Rattus norvegicus [8] = experiment: Anti-inflammatory activity in Sprague-Dawley rat model of LPS-induced acute lung injury assessed as reduction in TNFalpha mRNA level in lungs at 20 mg/kg, po administered daily for 1 week followed by LPS addition at 30 mins post last dose measured after 6 hrs by qRT-PCR method; type: functional, organism-based
[9] = molecular target: Interleukin-1 receptor-associated kinase 1 (Homo sapiens) (UniProt P51617); experiment: Inhibition of recombinant human N-terminal GST-tagged IRAK1 (194 to 712 residues) expressed in baculovirus expression system at 0.1 uM after 1 hr by caliper mobility shift assay relative to control
Chain of Interleukin-1 receptor-associated kinase 1 (Homo sapiens) (P51617 whole entry, looked up, the tested form may be a part): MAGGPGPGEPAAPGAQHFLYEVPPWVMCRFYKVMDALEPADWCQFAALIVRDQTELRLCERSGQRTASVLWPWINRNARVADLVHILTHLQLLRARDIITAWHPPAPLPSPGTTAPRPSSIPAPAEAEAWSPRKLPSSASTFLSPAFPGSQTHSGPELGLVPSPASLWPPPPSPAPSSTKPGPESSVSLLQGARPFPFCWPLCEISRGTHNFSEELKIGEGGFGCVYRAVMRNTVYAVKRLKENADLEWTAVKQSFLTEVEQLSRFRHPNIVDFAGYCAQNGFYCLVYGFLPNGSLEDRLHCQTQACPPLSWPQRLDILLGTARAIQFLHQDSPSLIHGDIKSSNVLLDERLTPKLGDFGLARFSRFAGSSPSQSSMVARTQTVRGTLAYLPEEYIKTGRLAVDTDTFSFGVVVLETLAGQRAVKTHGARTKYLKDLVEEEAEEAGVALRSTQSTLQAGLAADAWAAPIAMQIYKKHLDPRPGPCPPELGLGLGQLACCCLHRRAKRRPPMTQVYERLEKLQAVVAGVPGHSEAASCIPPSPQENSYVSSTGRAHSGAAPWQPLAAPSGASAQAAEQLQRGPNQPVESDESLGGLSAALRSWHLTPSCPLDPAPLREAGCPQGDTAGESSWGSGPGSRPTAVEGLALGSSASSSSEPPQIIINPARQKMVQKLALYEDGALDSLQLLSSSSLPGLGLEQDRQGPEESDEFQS

Peritoneal macrophage [10] = experiment: Inhibition of LPS-induced IL-6 mRNA expression in C57BL/6 mouse primary peritoneal macrophages at 10 uM preincubated for 30 mins followed by LPS addition measured after 24 hrs by qRT-PCR analysis; type: functional, cell-based
Rattus norvegicus [11] = experiment: Anti-inflammatory activity in Sprague-Dawley rat model of LPS-induced acute lung injury assessed as reduction in TNFalpha level in BALF at 20 mg/kg, po administered daily for 1 week followed by LPS addition at 30 mins post last dose measured after 6 hrs by ELISA; type: functional, organism-based
Rattus norvegicus [12] = experiment: Anti-inflammatory activity in Sprague-Dawley rat model of LPS-induced acute lung injury assessed as reduction in TNFalpha level in serum at 20 mg/kg, po administered daily for 1 week followed by LPS addition at 30 mins post last dose measured after 6 hrs by ELISA; type: functional, organism-based
Rattus norvegicus [13] = experiment: Anti-inflammatory activity in Sprague-Dawley rat model of LPS-induced acute lung injury assessed as reduction in ICAM1 mRNA level in lungs at 20 mg/kg, po administered daily for 1 week followed by LPS addition at 30 mins post last dose measured after 6 hrs by qRT-PCR method; type: functional, organism-based
Rattus norvegicus [14] = experiment: Anti-inflammatory activity in Sprague-Dawley rat model of LPS-induced acute lung injury assessed as reduction in IL-1beta mRNA level in lungs at 20 mg/kg, po administered daily for 1 week followed by LPS addition at 30 mins post last dose measured after 6 hrs by qRT-PCR method; type: functional, organism-based
Rattus norvegicus [15] = experiment: Anti-inflammatory activity in Sprague-Dawley rat model of LPS-induced acute lung injury assessed as reduction in VCAM1 mRNA level in lungs at 20 mg/kg, po administered daily for 1 week followed by LPS addition at 30 mins post last dose measured after 6 hrs by qRT-PCR method; type: functional, organism-based

For `COc1cc(/C=C2\COC/C(=C\c3cc(OC)c(OC)c(OC)c3)C2=O)cc(OC)c1OC`, which Activity (Rattus norvegicus [1]) is on record?
Its Activity is “Active”.

What about the inhibition (Peritoneal macrophage [2]) of the same compound?
The inhibition was “Active”.

What about the Activity (Rattus norvegicus [3]) of the same compound?
Its Activity is “Active”.

What about the inhibition at 1 µM (Peritoneal macrophage [4]) of the same compound?
Its inhibition at 1 µM is > 90%.

And the inhibition (RAW264.7 [5])?
The inhibition was “Active”.

And the inhibition [6]?
The inhibition was 13.3%.

What about the inhibition (RAW264.7 [7]) of the same compound?
Its inhibition is “Active”.

What about the Activity (Rattus norvegicus [8]) of the same compound?
Its Activity is “Active”.

And the inhibition [9]?
The inhibition was 15.9%.

What about the inhibition (Peritoneal macrophage [10]) of the same compound?
Its inhibition is “Active”.

For `COc1cc(/C=C2\CN(C)C/C(=C\c3cc(OC)c(OC)c(OC)c3)C2=O)cc(OC)c1OC`, which Activity (Rattus norvegicus [1]) is on record?
The Activity was “Active”.

And the inhibition (Peritoneal macrophage [2])?
The inhibition was “Active”.

And the Activity (Rattus norvegicus [3])?
Its Activity is “Active”.

What about the Activity (Rattus norvegicus [11]) of the same compound?
Its Activity is “Active”.

And the Activity (Rattus norvegicus [12])?
The Activity was “Active”.

And the inhibition at 1 µM (Peritoneal macrophage [4])?
The inhibition at 1 µM was > 90%.

What about the Activity (Rattus norvegicus [13]) of the same compound?
Its Activity is “Active”.

What about the Activity (Rattus norvegicus [14]) of the same compound?
The Activity was “Active”.

What about the inhibition (RAW264.7 [5]) of the same compound?
Its inhibition is “Active”.

What about the inhibition [6] of the same compound?
Its inhibition is 6.3%.

And the Activity (Rattus norvegicus [15])?
Its Activity is “Active”.

And the inhibition (RAW264.7 [7])?
The inhibition was “Active”.

What about the Activity (Rattus norvegicus [8]) of the same compound?
The Activity was “Active”.

And the inhibition [9]?
The inhibition was 7.7%.

What about the inhibition (Peritoneal macrophage [10]) of the same compound?
The inhibition was “Active”.
